# Reference: PubChem BioAssay AID192 (DTP/NCI, 2004)
# Several values for one entry are separate records, joined by “and”; a condition that tells them apart may be missing. Equal entries are not always repeated. Toxic doses and inconclusive results are not listed.
# System: BDF1 mice, B16 melanoma ip, median survival T/C
# Experiment: NCI In Vivo Anticancer Drug Screen. Data for tumor model B16 Melanoma (intraperitoneal) in B6D2F1 (BDF1) mice
# Settings: endpoint: median survival time, higher = longer survival
# How it was run: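 Tumor-bearing mice received test compound or vehicle. Survival or tumor size was then measured in both groups. The treated-group figure was divided by the control-group figure.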
# [1] = dose: 50.0 mg/kg/injection, schedule: Q01DX009 (ip), vehicle: saline with Tween-80
# [2] = dose: 100.0 mg/kg/injection, schedule: Q01DX009 (ip), vehicle: saline with Tween-80
# [3] = dose: 200.0 mg/kg/injection, schedule: Q01DX009 (ip), vehicle: saline with Tween-80
# [4] = dose: 6.25 mg/kg/injection, schedule: Q01DX009 (ip), vehicle: saline
# [5] = dose: 12.5 mg/kg/injection, schedule: Q01DX009 (ip), vehicle: saline
# [6] = dose: 25.0 mg/kg/injection, schedule: Q01DX009 (ip), vehicle: saline
# [7] = dose: 50.0 mg/kg/injection, schedule: Q01DX009 (ip), vehicle: saline
# [8] = dose: 25.0 mg/kg/injection, schedule: Q04DX003 (ip), vehicle: saline
# [9] = dose: 50.0 mg/kg/injection, schedule: Q04DX003 (ip), vehicle: saline
# [10] = dose: 5.0 mg/kg/injection, schedule: Q01DX009 (ip), vehicle: saline with Tween-80
# [11] = dose: 10.0 mg/kg/injection, schedule: Q01DX009 (ip), vehicle: saline with Tween-80
# [12] = dose: 12.5 mg/kg/injection, schedule: Q01DX009 (ip), vehicle: Klucel (hydroxypropylcellulose) (HPC)
# [13] = dose: 25.0 mg/kg/injection, schedule: Q01DX009 (ip), vehicle: Klucel (hydroxypropylcellulose) (HPC)
# [14] = dose: 12.5 mg/kg/injection, schedule: Q01DX009 (ip), vehicle: saline with Tween-80
# [15] = dose: 25.0 mg/kg/injection, schedule: Q01DX009 (ip), vehicle: saline with Tween-80
# [16] = dose: 6.25 mg/kg/injection, schedule: Q01DX009 (ip), vehicle: saline with Tween-80
# [17] = dose: 100.0 mg/kg/injection, schedule: Q01DX009 (ip), vehicle: Klucel (hydroxypropylcellulose) (HPC)
# [18] = dose: 200.0 mg/kg/injection, schedule: Q01DX009 (ip), vehicle: Klucel (hydroxypropylcellulose) (HPC)
structure (smiles),measurement,setting,value
COC1/C=C/O[C@@]2(C)Oc3c(C)c(O)c4c(O)c(cc(O)c4c3C2=O)NC(=O)/C(C)=C\C=C\[C@H](C)C(O)[C@@H](C)[C@@H](O)[C@@H](C)[C@H](OC(C)=O)[C@@H]1C (stereo partly drawn),T/C,[1],89 % of control
same,T/C,[2],100 % of control
same,T/C,[3],95 % of control
CC(C)(C)OC(=O)NCCCCC(NC(=O)OCc1ccccc1)C(=O)ON1C(=O)CCC1=O (stereo not drawn),T/C,[1],98 % of control
same,T/C,[2],92 % of control
same,T/C,[3],87 % of control
CC1=C(/C=C/C(C)=N/NC(N)=S)C(C)(C)CCC1,T/C,"dose: 0.3 mg/kg/injection, schedule: Q01DX009 (ip), vehicle: saline with Tween-80",105 % of control
same,T/C,"dose: 6.0 mg/kg/injection, schedule: Q01DX009 (ip), vehicle: saline with Tween-80",97 % of control
same,T/C,"dose: 12.0 mg/kg/injection, schedule: Q01DX009 (ip), vehicle: saline with Tween-80",97 % of control
NC(=O)c1ncn2c(=O)n(CCCl)nnc12,T/C,[4],158 % of control
same,T/C,[5],216 % of control
same,T/C,[6],207 % of control
same,T/C,[7],96 % of control
CC[N+](CC)(CC)CC,T/C,"dose: 0.37 mg/kg/injection, schedule: Q01DX009 (ip), vehicle: saline with Tween-80",103 % of control
same,T/C,"dose: 0.75 mg/kg/injection, schedule: Q01DX009 (ip), vehicle: saline with Tween-80",100 % of control
same,T/C,"dose: 1.5 mg/kg/injection, schedule: Q01DX009 (ip), vehicle: saline with Tween-80",112 % of control
same,T/C,"dose: 3.0 mg/kg/injection, schedule: Q01DX009 (ip), vehicle: saline with Tween-80",120 % of control
same,T/C,[4],123 % of control
same,T/C,"dose: 11.0 mg/kg/injection, schedule: Q01DX009 (ip), vehicle: saline",112 % of control
same,T/C,[5],109 % of control
same,T/C,"dose: 16.5 mg/kg/injection, schedule: Q01DX009 (ip), vehicle: saline",108 % of control
same,T/C,[8],100 % of control
same,T/C,"dose: 37.5 mg/kg/injection, schedule: Q01DX009 (ip), vehicle: saline",108 % of control
same,T/C,[7],90 % of control
same,T/C,[9],100 % of control
CCCCCCCCCCCCCCCCCC(=O)NCNC(=O)CCCCCCCCCCCCCCCCC,T/C,"dose: 2.5 mg/kg/injection, schedule: Q01DX009 (ip), vehicle: saline with Tween-80",102 % of control
same,T/C,"dose: 4.68 mg/kg/injection, schedule: Q04DX003 (ip), vehicle: saline with Tween-80",86 % of control
same,T/C,[10],100 % of control
same,T/C,"dose: 9.37 mg/kg/injection, schedule: Q04DX003 (ip), vehicle: saline with Tween-80",97 % of control
same,T/C,[11],87 % of control
C[Se]c1ncnc2c1c(C#N)cn2C1OC(CO)C(O)C1O (stereo not drawn),T/C,"dose: 3.12 mg/kg/injection, schedule: Q01DX009 (ip), vehicle: Klucel (hydroxypropylcellulose) (HPC)",92 % of control
same,T/C,[12],97 % of control
same,T/C,[13],90 % of control
CN=C(N)N/N=C(\C)c1ccc2c(c1)Cc1ccccc1-2,T/C,[14],110 % of control
same,T/C,[15],115 % of control
same,T/C,[1],120 % of control
same,T/C,[2],112 % of control
S=C([S][Sn]([c]1ccccc1)([c]1ccccc1)[c]1ccccc1)N1CCOCC1,T/C,"dose: 1.56 mg/kg/injection, schedule: Q01DX009 (ip), vehicle: saline with Tween-80",107 % of control
same,T/C,"dose: 3.13 mg/kg/injection, schedule: Q01DX009 (ip), vehicle: saline with Tween-80",100 % of control
same,T/C,[16],110 % of control
S=C(Nc1ccccc1)Nc1ccccc1S,T/C,[17],95 % of control and 107 % of control
same,T/C,[18],98 % of control and 111 % of control
CCCCCCC1N(Cc2ccccc2N(C)C)CCCN1Cc1ccccc1N(C)C,T/C,"dose: 75.0 mg/kg/injection, schedule: Q01DX009 (ip), vehicle: saline",97 % of control
COc1ccc2c(NCCCCCCCCNc3c4ccccc4nc4cc(OC)ccc34)c3ccccc3nc2c1,T/C,"dose: 3.75 mg/kg/injection, schedule: Q01DX009 (ip), vehicle: distilled water + alcohol",95 % of control
CC(C)(C)C(=O)CC(=O)C(F)(F)C(F)(F)C(F)(F)F.[Ag],T/C,[16],97 % of control
same,T/C,[14],94 % of control
same,T/C,[15],86 % of control
COc1ccc2c3c1OC1CC(O)C=CC31CCN(C)C2 (stereo not drawn),T/C,"dose: 1.25 mg/kg/injection, schedule: Q01DX009 (ip), vehicle: saline with Tween-80",106 % of control
same,T/C,"dose: 2.5 mg/kg/injection, schedule: Q01DX009 (ip), vehicle: saline",103 % of control
same,T/C,[10],105 % of control and 113 % of control
same,T/C,[11],95 % of control
CC(CN1CCN(CCOCCO)CC1)CN1c2ccccc2Sc2ccc(Cl)cc21 (stereo not drawn),T/C,"dose: 0.09 mg/kg/injection, schedule: Q01DX009 (ip), vehicle: saline",117 % of control
same,T/C,"dose: 0.19 mg/kg/injection, schedule: Q01DX009 (ip), vehicle: saline",98 % of control
same,T/C,"dose: 0.39 mg/kg/injection, schedule: Q01DX009 (ip), vehicle: saline",121 % of control
same,T/C,"dose: 0.78 mg/kg/injection, schedule: Q01DX009 (ip), vehicle: saline",104 % of control
same,T/C,"dose: 1.56 mg/kg/injection, schedule: Q01DX009 (ip), vehicle: saline",115 % of control
same,T/C,"dose: 3.12 mg/kg/injection, schedule: Q01DX009 (ip), vehicle: saline",100 % of control
same,T/C,[4],101 % of control
O=[N+]([O-])c1cc([N+](=O)[O-])cc(S(=O)(=O)O)c1,T/C,[8],108 % of control
same,T/C,[9],97 % of control
same,T/C,"dose: 100.0 mg/kg/injection, schedule: Q04DX003 (ip), vehicle: saline",87 % of control
CCC(C)C(C(=O)OCCN(CC)CC)c1ccccc1 (stereo not drawn),T/C,[12],90 % of control
same,T/C,[13],96 % of control
same,T/C,"dose: 50.0 mg/kg/injection, schedule: Q01DX009 (ip), vehicle: Klucel (hydroxypropylcellulose) (HPC)",90 % of control and 93 % of control
NC(=O)c1nn(C2OC(CO)C(O)C2O)c2ncnc(N)c12 (stereo not drawn),T/C,"dose: 1.25 mg/kg/injection, schedule: Q01DX009 (ip), vehicle: Klucel (hydroxypropylcellulose) (HPC)",96 % of control
same,T/C,"dose: 2.5 mg/kg/injection, schedule: Q01DX009 (ip), vehicle: Klucel (hydroxypropylcellulose) (HPC)",104 % of control
same,T/C,"dose: 5.0 mg/kg/injection, schedule: Q01DX009 (ip), vehicle: Klucel (hydroxypropylcellulose) (HPC)",107 % of control
same,T/C,"dose: 10.0 mg/kg/injection, schedule: Q01DX009 (ip), vehicle: Klucel (hydroxypropylcellulose) (HPC)",118 % of control
same,T/C,[13],103 % of control
COc1cc(OC)c(NC(=O)c2ccccc2Cl)cc1Cl,T/C,[17],97 % of control
same,T/C,[18],102 % of control
same,T/C,"dose: 400.0 mg/kg/injection, schedule: Q01DX009 (ip), vehicle: Klucel (hydroxypropylcellulose) (HPC)",102 % of control
CCOC(=O)C(Cc1ccccc1)P(=O)(OCC)OCC (stereo not drawn),T/C,"dose: 50.0 mg/kg/injection, schedule: Q04DX003 (ip), vehicle: saline with Tween-80",100 % of control
same,T/C,"dose: 100.0 mg/kg/injection, schedule: Q04DX003 (ip), vehicle: saline with Tween-80",95 % of control
same,T/C,"dose: 200.0 mg/kg/injection, schedule: Q04DX003 (ip), vehicle: saline with Tween-80",90 % of control
OC(CCl)CN1CC[N+]2(CC1)CC[N+]1(CCN(CC(O)CCl)CC1)CC2 (stereo not drawn),T/C,"dose: 4.0 mg/kg/injection, schedule: Q03HX024 (ip), vehicle: water",114 % of control
same,T/C,"dose: 8.0 mg/kg/injection, schedule: Q03HX016 (ip), vehicle: water",114 % of control
same,T/C,"dose: 8.0 mg/kg/injection, schedule: Q03HX024 (ip), vehicle: water",117 % of control
same,T/C,[5],116 % of control
same,T/C,"dose: 16.0 mg/kg/injection, schedule: Q01DX009 (ip), vehicle: water",114 % of control
same,T/C,"dose: 16.0 mg/kg/injection, schedule: Q03HX008 (ip), vehicle: water",113 % of control
same,T/C,"dose: 16.0 mg/kg/injection, schedule: Q03HX016 (ip), vehicle: water",121 % of control
same,T/C,"dose: 16.0 mg/kg/injection, schedule: Q03HX024 (ip), vehicle: water",121 % of control
same,T/C,[6],111 % of control
same,T/C,"dose: 32.0 mg/kg/injection, schedule: Q03HX008 (ip), vehicle: water",123 % of control
same,T/C,"dose: 44.0 mg/kg/injection, schedule: Q01DX009 (ip), vehicle: saline",116 % of control
same,T/C,"dose: 66.0 mg/kg/injection, schedule: Q01DX009 (ip), vehicle: water",151 % of control and 172 % of control
same,T/C,"dose: 100.0 mg/kg/injection, schedule: Q01DX009 (ip), vehicle: water",150 % of control
